Data reported in US20240415809A1, “PHARMACEUTICAL COMBINATIONS” (ZYDUS LIFESCIENCES LIMITED, priority 2021, published 2024).

Tests used:
Assay type in all cases: in vivo
[1] = system: DSS induced ulcerative colitis in C57 mice; assay: Apremilast and Rifaximin alone and in combination in DSS induced ulcerative colitis in C57 mice (Example 7); settings: for % change in DAI vs DSS vehicle control / % change in bleeding score vs DSS vehicle control / The rectal bleeding score, Day-6 / The disease activity index (DAI) score, Day-6: Day-6, Rifaximin 19 mg/kg p.o., Apremilast 12.5 mg/kg p.o., alone or combined, once a day for six days; for The disease activity index (DAI) score, Day-6: 2.5% DSS; for improvement in disease activity index (DAI) score: Example 7, Apremilast human equivalent mice dose, low dose of Rifaximin
Source text: (§1) In this study, we have used human equivalent mice dose of Apremilast and very ( 1/18th-fold) low dose of Rifaximin in animal model, which is DSS (Dextran sulfate sodium) induced ulcerative colitis in C57 mice (Br J Pharmacol. 2019 July; 176 (13): 2209-2226. doi: 10.1111/bph.14667. Epub 2019 May 17). The colitis induced by DSS, presents good reproducibility and also mimics clinical symptoms, inflammatory markers and histopathological features which is similar to IBD in humans (Cell Mol Gastroenterol Hepatol. 2015 Mar. 1; 1 (2): 154-170. doi: 10.1016/j.jcmgh.2015.01.006., Arq Gastroenterol. 2014 April-June; 51 (2): 107-12. doi: 10.1590/s0004-28032014000200007. PMID: 25003261).
(§2) C57 mice of 10-12 weeks age were used for this study. On the day of study initiation (day-0) animals were randomized based on their body weight in to different treatment groups as below:
(§3) On day-0 animals were randomized based on body weight and from the same day onwards animals were administered with 2.5% DSS in RO water along with the test compounds till day-6.
(§4) The test compounds were formulated in Tween 80 and 0.5% Na. CMC in (0.5:99.50%) ratio and oral administration was done once a day for six days. During the duration of the experiment, a disease activity index (DAI) score was assessed to evaluate the clinical progression of ulcerative colitis. The DAI was calculated by grading on a scale of 0-5 using the following parameters: loss of body weight (0=normal; 1=0-5%; 2=6-10%; 3=11-15%; 4=16-20%, 5=>20%), stool consistency (0=normal; 1=soft stools; 2=loose stools; 3=watery diarrhea) and rectal bleeding (0=none; 2=presence of hemoccult; 4=severe bleeding). (Ref: Cytokine 2014, 66, 30-39).
(§5) On the day of termination (Day-6), DAI score was assessed followed by nonfasted blood collection. Then animals were sacrificed and relevant tissues were collected in 10% formalin for histological analysis or snap frozen in liquid nitrogen for other assays.
(§6) With the help of MS Excel, percent change vs disease control (DSS vehicle control) in various parameters were calculated and statistical analysis was performed using graph pad prism software.

[2] = system: DSS induced ulcerative colitis in C57 mice; assay: Apremilast and Rifaximin alone and as fixed dose combination (FDC) in DSS induced ulcerative colitis in C57 mice (Example 8); settings: for % change in DAI vs DSS vehicle control / % change in bleeding score vs DSS vehicle control / The rectal bleeding score, Day-6 / The disease activity index (DAI) score, Day-6: Day-6, Rifaximin 102.8 mg/kg p.o. BID, Apremilast 2.1 mg/kg p.o. BID, alone or combined; for The disease activity index (DAI) score, Day-6: six days, 2.5% DSS; for improvement in disease activity index (DAI) score / improvement in rectal bleeding: Example 8, Apremilast equivalent to 10 mg, Rifaximin equivalent to 500 mg human dose
Experimental: In this study, we have used Apremilast which is equivalent to 10 mg of human dose and Rifaximin which is equivalent to 500 mg of human dose in animal model, which is DSS (Dextran sulfate sodium) induced ulcerative colitis in C57 mice (Br J Pharmacol. 2019 July; 176 (13): 2209-2226. doi: 10.1111/bph.14667. Epub 2019 May 17). The colitis induced by
C57 mice of 9-10 weeks age were used for this study. On the day of study initiation (day-0) animals were randomized based on their body weight in to different treatment groups as below:
On day-0 animals were randomized based on body weight and from the same day onwards animals were administered with 2.5% DSS in RO water along with the test compounds till day-6. The test compounds were formulated in Tween 80 and 0.5% Na. CMC in (0.5:99.50%) ratio and oral administration was done twice a day for six days. During the duration of the experiment, a disease activity index (DAI) score was assessed to evaluate the clinical progression of ulcerative colitis.
The DAI was calculated by grading on a scale of 0-5 using the following parameters: loss of body weight (0=normal; 1=0-5%; 2=6-10%; 3=11-15%; 4=16-20%, 5=>20%), stool consistency (0=normal; 1=soft stools; 2=loose stools; 3=watery diarrhea) and rectal bleeding (0=none; 2=presence of hemoccult; 4=severe bleeding). (Ref: Cytokine 2014, 66, 30-39).
as §5, §6

[3] = system: DSS induced ulcerative colitis in C57 mice; assay: ADD ON effect of FDC with Mesalamine in DSS induced ulcerative colitis in C57 mice (Example 10)
Experimental: as §1, with “To study the ADD ON effect of FDC (combination” for “In this study, we have used human equivalent mice dose”, “Apremilast equivalent to 15 mg” for “Apremilast”, “Rifaximin equivalent to 500 mg of human dose) with mesalamine equivalent to 800 mg of human” for “very ( 1/18th-fold) low”, “dose” for “dose of Rifaximin”
as §2, §3
as §4, with “twice” for “once”
On the day of termination (Day-6), DAI score was assessed followed by nonfasted blood collection. Then animals were sacrificed, colon length was measured and then collected in 10% formalin for histological analysis or snap frozen in liquid nitrogen for other assays.
With the help of MS Excel, percent change vs disease control (DSS vehicle control) in various parameters were calculated and statistical analysis was performed using graph pad prism software. Percentage improvement of colon length was calculated by calculating the decrease in colon length due to disease from water vehicle control group and then improvement in colon length against DSS vehicle control group by considering the colon length of water vehicle control group as 100%.

[4] = Day-6, Mesalamine 164.4 mg/kg p.o. BID, FDC = Rifaximin 102.8 mg/kg + Apremilast 3.1 mg/kg p.o. BID

Structure (SMILES)	% change in DAI vs DSS vehicle control [1] [%]	% change in bleeding score vs DSS vehicle control [1] [%]	The rectal bleeding score, Day-6 [1]	The disease activity index (DAI) score, Day-6 [1]	improvement in disease activity index (DAI) score [1]	% change in DAI vs DSS vehicle control [2] [%]	% change in bleeding score vs DSS vehicle control [2] [%]	The rectal bleeding score, Day-6 [2]	The disease activity index (DAI) score, Day-6 [2]	improvement in disease activity index (DAI) score [2] [%]	improvement in rectal bleeding [2] [%]	% change in DAI vs DSS vehicle control [3, 4] [%]	% improvement in colon length vs DSS vehicle control [3, 4] [%]	The Colon length, Day-6 [3, 4] [cm]	The disease activity index (DAI) score, Day-6 ([3]; Day-6, Mesalamine 164.4 mg/kg p.o. BID, FDC = Rifaximin 102.8 mg/kg + Apremilast 3.1 mg/kg p.o. BID, six days)	improvement in disease activity index (DAI) score ([3]; Mesalamine equivalent to 800 mg, FDC = Apremilast equivalent to 15 mg and Rifaximin equivalent to 500 mg of human dose) [%]
CCOc1cc(C(CS(C)(=O)=O)N2C(=O)c3cccc(NC(C)=O)c3C2=O)ccc1OC (single isomer, unassigned; (+)) [Apremilast, (+)-2-[1-(3-ethoxy-4-methoxyphenyl)-2-methylsulfonylethyl]-4-acetylaminoisoindoline-1,3-dione]	−32.8 ± 16.7	−57.1 ± 21.8	1.2 ± 0.6	4.1 ± 1.0	32.8%	−11.5 ± 9.5	−16.7 ± 17.6	2.0 ± 0.4	6.9 ± 0.7	12	17	–	–	–	–	–
Nc1ccc(O)c(C(=O)O)c1 [Mesalamine]	–	–	–	–	–	–	–	–	–	–	–	−40.2 ± 5.0	39.3 ± 11.0	6.3 ± 0.2	3.1 ± 0.3	40
CO[C@H]1/C=C/O[C@@]2(C)Oc3c(C)c(O)c4c(O)c(c5c(nc6cc(C)ccn65)c4c3C2=O)NC(=O)/C(C)=C\C=C\[C@H](C)[C@H](O)[C@@H](C)[C@@H](O)[C@@H](C)[C@H](OC(C)=O)[C@@H]1C [Rifaximin]	−3.3 ± 11.8	−39.3 ± 16.9	1.7 ± 0.5	5.9 ± 0.7	didn't show any improvement	−17.9 ± 11.2	−16.7 ± 21.5	2.0 ± 0.5	6.4 ± 0.9	18	17	–	–	–	–	–
